Bridge positions count the residues as written; N and C are the ends. Ends that are not written are not given here. Peptide text beside a SMILES is read from it. I, II: the chains in the order shown. * marks the point of attachment. Chlorambucil = O=C(CCCc1ccc(N(CCCl)CCCl)cc1)* Where only a bound is given, the exact number is not on record here.

The term IC50 denotes the concentration at which inhibition is half-maximal.

For data set [1], the system named is HEK-293 cells. Kind of data set: Flow cytometric cellular uptake of carboxyfluorescein-labeled peptides. Type of data set: cell-based, human. Conditions: 1 h, flow cytometry; for cellular uptake at 1 µM: HEK-293, CF-labeled peptide 1 µM. The protocol: (§1) For peptide-uptake studies by flow cytometry, cells were seeded in a 48-well plate and grown to 60–70% confluence. After incubation at 37 °C for 1 h with 5(6)-carboxyfluorescein-labeled peptides in OptiMEM, the cells were treated with 150 µM trypan blue for 0.5 min to quench extracellular fluorescence and washed twice with PBS, trypsinized and resuspended in standard cell-culture medium. Analyses were performed on a Partec CyFlow ML flow cytometer. Cellular autofluorescence was subtracted. The experiments were carried out with n (number of experiments) = 2 in duplicate.
In general terms: In flow cytometry, cells or beads pass a laser one at a time.

Data set [2] concerns HT-29 cells. The description is as above. Format: cell-based, human. Conditions: 1 h, flow cytometry; for cellular uptake at 1 µM: HT-29, CF-labeled peptide 1 µM. How it is done: as §1
The test system of data set [3] is MCF-7 cells. Described as above. Type of data set: cell-based, human. Conditions: 1 h, flow cytometry; for cellular uptake at 1 µM: MCF-7, CF-labeled peptide 1 µM. The protocol: as §1
The test system of data set [4] is HEK-293 cells. Kind of data set: Fluorescence microscopic uptake study. Type of data set: cell-based, human. Conditions: unfixed HEK-293, 1 µM CF-labeled peptide, 30 min, fluorescence microscopy. How it is done:
For fluorescence microscopic uptake studies, cells were seeded in an 8-well ibidi plate and grown to 60–70% confluence. The cells were then incubated with CF-labeled peptides in OptiMEM for 30 min at 37 °C. Ten minutes prior to the end of incubation, the nuclei were stained by addition of Hoechst33342 nuclear dye. Finally, the solution was removed, and the cells were treated with a 150 µM trypan blue solution for 0.5 min. After washing twice with PBS, images were taken by using a Zeiss Observer Z1 fluorescence microscope equipped with an ApoTome unit using a 63× oil immersion objective.

Data set [5] concerns human adipose tissue-derived stem cells (hADSC). Kind of data set: Fluorescence microscopic uptake study in primary cells. Conditions: 1 h. Format: cell-based. The protocol:
For fluorescence microscopic uptake studies, cells were seeded in an 8-well ibidi plate and grown to 60–70% confluence. […] Ten minutes prior to the end of incubation, the nuclei were stained by addition of Hoechst33342 nuclear dye. Finally, the solution was removed, and the cells were treated with a 150 µM trypan blue solution for 0.5 min. After washing twice with PBS, images were taken by using a Zeiss Observer Z1 fluorescence microscope equipped with an ApoTome unit using a 63× oil immersion objective.

The subject of data set [6] is HEK-293 cells. Kind of data set: Resazurin-based cell viability assay. Details: species or system human. Conditions: HEK-293, 24 h, concentrations up to 100 µM, n = 2 in triplicate. How it is done:
(§2) Untreated cells were set to 100%. […] Experiments were carried out with n = 2 in triplicate.
In general terms: Resazurin is reduced to fluorescent resorufin, in cell work by metabolically active cells.

For data set [7], the system named is HT-29 cells. The data set can be described thus: Resazurin-based cell viability assay. Details: species or system human. Conditions: n = 2 in triplicate; for IC50: resazurin-based cell viability, 24 h incubation, in the presence of serum, nonlinear regression, ± spread. The protocol:
as §2

The subject of data set [8] is HEK-293 cells. The data set can be described thus: LDH release (membrane integrity) assay. Format: cell-based, human. Conditions: HEK-293, 1 h incubation, elevated concentrations, CytoTox-One, n = 2 in triplicate. The protocol:
Experiments were carried out with n = 2 in triplicate.
(In general: Release of lactate dehydrogenase indicates damage to the cell membrane.)

Data set [9] relates to MCF-7 cells. Kind of data set: Resazurin-based cell viability assay. Conditions: n = 2 in triplicate; for IC50: read-out: IC50 MCF-7, resazurin-based cell viability, 24 h incubation, in the presence of serum, nonlinear regression, ± spread.
Description: Cytotoxicity was determined by means of a resazurin-based cell-viability assay. Cells were seeded in a 96-well plate, grown to subconfluency and incubated with the substances at different concentrations for 24 h in the presence of serum under standard growth conditions. For the positive control, cells were treated with 70% ethanol for 10 min. After washing, the cell viability was determined relative to untreated cells by using the In Vitro Toxicology Assay Kit from Sigma-Aldrich according to the manufacturer’s protocol. Measurement was performed fluorimetrically at 595 nm (λex = 550 nm) on a Tecan SpectraFluor Plus plate reader. Untreated cells were set to 100%. IC50 values were calculated by using nonlinear regression (sigmoidal dose–response) with GraphPad Prism. Experiments were carried out with n = 2 in triplicate.
For data set [10], the system named is HT-29 cells. Kind of data set: LDH release (membrane integrity) assay. Conditions: HT-29, 1 h incubation.
Description: (§3) For the membrane leakage assay utilizing the Promega CytoTox-One kit, cells were seeded in a 96-well plate, grown to subconfluency, and incubated with the substances at different concentrations for 1 h in the presence of serum under standard growth conditions. Afterwards, the assay was conducted according to the manufacturer’s protocol including the provided cell lysis positive control. Measurement was performed fluorimetrically at 595 nm (λex = 550 nm) on a Tecan SpectraFluor Plus plate reader. The negative control served as blank value, and data were normalized to the positive control. Experiments were carried out with n = 2 in triplicate.
The subject of data set [11] is MCF-7 cells. Kind of data set: LDH release (membrane integrity) assay.
Description: as §3
The test system of data set [12] is HT-29 cells. Conditions: cited from earlier work.
Description: (§4) The effect of the dimeric sC18 on the survival of HEK-293, HT-29 and MCF-7 cells was determined by means of a resazurin-based cell viability assay.
The test system of data set [13] is MCF-7 cells. Conditions: cited from earlier work.
Description: as §4
Where [14] appears, read: 25 µM CF-labeled peptide, fluorescence microscopy.

In the case of `CC[C@H](C)[C@H](NC(=O)[C@H](CCCCN)NC(=O)[C@H](CC(N)=O)NC(=O)[C@H](CCCNC(=N)N)NC(=O)[C@H](Cc1ccccc1)NC(=O)[C@H](CCCCN)NC(=O)[C@H](CCCNC(=N)N)NC(=O)[C@H](CC(C)C)NC(=O)[C@H](CCCNC(=N)N)NC(=O)[C@H](CCCCNC(=O)[C@H](CCCCN)NC(=O)[C@H](CCC(=O)O)NC(=O)[C@H](CCCCN)NC(=O)[C@@H](NC(=O)[C@H](CCCCN)NC(=O)[C@H](CC(N)=O)NC(=O)[C@H](CCCNC(=N)N)NC(=O)[C@H](Cc1ccccc1)NC(=O)[C@H](CCCCN)NC(=O)[C@H](CCCNC(=N)N)NC(=O)[C@H](CC(C)C)NC(=O)[C@H](CCCNC(=N)N)NC(=O)[C@H](CCCCN)NC(=O)[C@H](CCCNC(=N)N)NC(=O)[C@H](CC(C)C)NC(=O)CN)[C@@H](C)CC)NC(=O)[C@H](CCCNC(=N)N)NC(=O)[C@H](CC(C)C)NC(=O)CN)C(=O)N[C@@H](CCCCN)C(=O)N[C@@H](CCC(=O)O)C(=O)N[C@@H](CCCCN)C(N)=O` [(sC18)2] (I: H-GLRKRLRKFRNKIKEK / II: H-GLRKRLRKFRNKIKEK-NH2; amide I:C-II:4), the “cellular uptake at 1 µM” value in [1] (37 °C, OptiMEM) is “significant uptake”; in [2] (37 °C, OptiMEM), “significant uptake”; in [3] (37 °C, OptiMEM), “significant uptake”. Besides, the “increase of intracellular fluorescence versus sC18” value is at least 10 fold in data set [1] (HEK-293, CF-labeled peptides, 37 °C, OptiMEM, trypan blue quench, n = 2 in duplicate); at least 10 fold in [2] (HT-29, CF-labeled peptides, 37 °C, OptiMEM, trypan blue quench, n = 2 in duplicate); at least 10 fold in [3] (MCF-7, CF-labeled peptides, 37 °C, OptiMEM, trypan blue quench, n = 2 in duplicate). Further, the “uptake rate at 1 µM compared to sC18 at 10 µM” value is given as “significantly higher” in data set [1] (HEK-293, CF-labeled, p ≤ 0.05) and “significantly higher” in data set [3] (MCF-7, CF-labeled, p ≤ 0.05). For the same compound, in data set [2] (CF-labeled peptide 10 µM, versus HEK-293 and MCF-7), the “amount taken up by HT-29 cells compared to the other cell lines” value is listed as “less than half”. The intracellular distribution pattern result in [4] is on record as “punctate uptake pattern”. Also, the “intracellular distribution in primary cells” value in data set [5] (setting [14]) was “evenly distributed throughout the cells”. Further, the “uptake into primary cells” value in data set [5] (setting [14]) is on record as “bright intracellular fluorescence”. In [5] (25 µM, microscopy), the “cytotoxicity judged by cell morphology” value is “no cytotoxicity”. Besides, the cell viability result in [6] was “remained unharmed”; in [7] (HT-29, 24 h, resazurin, different concentrations up to 100 µM (Figure 3)) it was “steady decrease of cell viability”; in data set [9] (MCF-7, 24 h, resazurin, different concentrations up to 100 µM (Figure 3)), “steady decrease of cell viability”. The “membrane leakage (LDH release)” value in data set [8] was “only show a little membrane leakage”. For the same compound, the “extracellular LDH levels” value in [10] (in the presence of serum, CytoTox-One, compared to MCF-7) is “much smaller”. Also, in [11] (MCF-7, 30 µM, 1 h incubation, in the presence of serum, CytoTox-One), the “extracellular LDH (membrane destabilization)” value is recorded as “high levels of extracellular LDH”.

With `CC[C@H](C)[C@H](NC(=O)[C@H](CCCCN)NC(=O)[C@H](CC(N)=O)NC(=O)[C@H](CCCNC(=N)N)NC(=O)[C@H](Cc1ccccc1)NC(=O)[C@H](CCCCN)NC(=O)[C@H](CCCNC(=N)N)NC(=O)[C@H](CC(C)C)NC(=O)[C@H](CCCNC(=N)N)NC(=O)[C@H](CCCCNC(=O)[C@H](CCCCN)NC(=O)[C@H](CCC(=O)O)NC(=O)[C@H](CCCCN)NC(=O)[C@@H](NC(=O)[C@H](CCCCN)NC(=O)[C@H](CC(N)=O)NC(=O)[C@H](CCCNC(=N)N)NC(=O)[C@H](Cc1ccccc1)NC(=O)[C@H](CCCCN)NC(=O)[C@H](CCCNC(=N)N)NC(=O)[C@H](CC(C)C)NC(=O)[C@H](CCCNC(=N)N)NC(=O)[C@H](CCCCN)NC(=O)[C@H](CCCNC(=N)N)NC(=O)[C@H](CC(C)C)NC(=O)CNC(=O)[C@H](CC(C)C)NC(=O)[C@H](Cc1ccccc1)NC(=O)CNC(=O)CCCc1ccc(N(CCCl)CCCl)cc1)[C@@H](C)CC)NC(=O)[C@H](CCCNC(=N)N)NC(=O)[C@H](CC(C)C)NC(=O)CNC(=O)[C@H](CC(C)C)NC(=O)[C@H](Cc1ccccc1)NC(=O)CNC(=O)CCCc1ccc(N(CCCl)CCCl)cc1)C(=O)N[C@@H](CCCCN)C(=O)N[C@@H](CCC(=O)O)C(=O)N[C@@H](CCCCN)C(N)=O` [compound 3] (I: Chlorambucil-GFLGLRKRLRKFRNKIKEK / II: Chlorambucil-GFLGLRKRLRKFRNKIKEK-NH2; amide I:C-II:7), the IC50 was 26 ± 1.2 µM in data set [7] and 8.9 ± 0.3 µM in data set [9]. For the same compound, the “LDH release compared to the cymantrene conjugates” value is “equal amount of LDH release” in data set [10] (different concentrations (Figure 9)) and “equal amount of LDH release” in data set [11] (MCF-7, 1 h incubation, different concentrations (Figure 9)).

With “GLRKRLRKFRNKIKEK-NH2 [sC18, reference compound]”, the “cellular uptake at 1 µM” value in data set [1] (37 °C, OptiMEM) is “almost failed to internalize”; in data set [2] (37 °C, OptiMEM), “almost failed to internalize”; in data set [3] (37 °C, OptiMEM) it was “almost failed to internalize”. Besides, in data set [4], the intracellular distribution pattern entry is on record as “punctate uptake pattern”. For the same compound, in data set [5] (setting [14]), the “uptake into primary cells” value was “hardly any detectable uptake”. The “cell viability (previous studies)” value in [12] and in [13] was “did not cause any loss of cell viability” throughout.

As for “I: KLAKLAKKLAKLAKGFLGLRKRLRKFRNKIKEK-NH2 / II: GLRKRLRKFRNKIKEK (amide I:21-II:C) [compound 4]”, the IC50 came to 14.3 ± 1.4 µM in data set [7] and 3.6 ± 1.5 µM in data set [9].

These data come from article PMC3511013, “Dimerization of a cell-penetrating peptide leads to enhanced cellular uptake and drug delivery” (Beilstein Journal of Organic Chemistry, 2012).
